From patent US20240185961A1, “DRUG MATERIAL INTERACTIONS USING QUARTZ CRYSTAL MICROBALANCE SENSORS” (Janssen Biotech, Inc., priority 2021, published 2024)

Tests used:
Format in all cases: physicochemical
[1] = QCM-D adsorption, PS20 only runs, PVC and PES sensor surfaces pooled; conditions: all at the same concentration, protein 3 experiments, 95% CI±19.77 ng/sq cm
Method: (§1) The experiments detailed below were informed using quartz sensors coated with various surface compositions such as PVC, PE, PES, PVDF, PC, or PP. These sensors can be pre and post-run cleaned, for example, by way of a 30 min soak in 1% Deconex 11 Solution, a minimum 2 hr soak in DI water (usually overnight), followed by a rinse with DI water and 99% ethanol three times and then blown dry by medical grade nitrogen gas. The sensors were then inserted into a QCM unit as was sample solution, diluent (e.g., NS), and water. Runs were configured and data and procedures were collected. Experimental data was then transformed from frequency to mass data using, for example, the above equations. […]
(§2) In one experimental run, over 60 sensorgrams (i.e., the outputs of the QCM-D instruments) were analyzed and transformed from frequency to mass adsorption data in the aforementioned example. Here the mass adsorbed during the sample period was of primary interest, and the mass during this period was measured by subtracting the average mass recorded and calculated during the diluent period where an ionic liquid had effect on resonance (period 2 above/520 in FIG. 5) from the average mass shift recorded and calculated during the sample period (period 3 above/530 in FIG. 5). […]

[2] = QCM-D adsorption to PVC sensor surface; conditions: protein 3 formulation, PS20-poor solution, average, 95% CI±33.7%
Method: as §1, §2

[3] = QCM-D adsorption to PES sensor surface; conditions: protein 3 formulation, PS20-poor solution, average, 95% CI±5.2%
Method: as §1, §2

average mass contribution, PS20 only runs [1]: 40.20 ng/sq cm | PS20 contribution to mass of layer at the surface [2]: 35.56% | PS20 contribution to mass of layer at the surface [3]: 12.22%
Substance: polysorbate 20 [PS20]
